Literature values in PMC4138103 (PLoS ONE, 2014).
Where two headings read alike, the source gives them in different places.

System: Liver enzymes
Set-up: method as in Roos et al., 2011
Conditions: 2011, cited from earlier work; for CED, CYP3A1 mRNA / CED-L, CYP3A1 mRNA: model E4; for CED, CYP3A1 mRNA / CED-L, CYP3A1 mRNA / CED, CYP2B1 mRNA / CED-L, CYP2B1 mRNA: adipose tissue concentration based, enzyme induction data ref Roos et al.; for CED, CYP2B1 mRNA / CED-L, CYP2B1 mRNA: model E5; for CYP2B1 mRNA, CED / CYP2B1 mRNA, CED-L / CYP3A1 mRNA, CED / CYP3A1 mRNA, CED-L: total dose based, ref Roos et al.

## Clc1cc(Cl)c(-c2cc(Cl)c(Cl)c(Cl)c2Cl)cc1Cl [PCB 180, 2,2′,3′,4,4′,5,5′-heptachlorobiphenyl]
F, CES 5%
  CED, CYP3A1 mRNA: 6.75 µg/g lipid
  CED-L, CYP3A1 mRNA: 3.19 µg/g lipid
  CED, CYP2B1 mRNA: 12.4 µg/g lipid
  CED-L, CYP2B1 mRNA: 5.74 µg/g lipid
F, CES 10%
  CED, CYP3A1 mRNA: 13.5 µg/g lipid
  CED-L, CYP3A1 mRNA: 6.39 µg/g lipid
  CED, CYP2B1 mRNA: 15.5 µg/g lipid
  CED-L, CYP2B1 mRNA: 7.76 µg/g lipid
M, CES 5%
  CED, CYP3A1 mRNA: 5.88 µg/g lipid
  CED-L, CYP3A1 mRNA: 3.63 µg/g lipid
  CED, CYP2B1 mRNA: 1.52 µg/g lipid
  CED-L, CYP2B1 mRNA: 0.584 µg/g lipid
M, CES 10%
  CED, CYP3A1 mRNA: 11.8 µg/g lipid
  CED-L, CYP3A1 mRNA: 7.26 µg/g lipid
  CED, CYP2B1 mRNA: 2.15 µg/g lipid
  CED-L, CYP2B1 mRNA: 0.895 µg/g lipid
females, CES 5%
  CYP2B1 mRNA, CED: 1.70 mg/kg bw
  CYP2B1 mRNA, CED-L: 0.90 mg/kg bw
  CYP3A1 mRNA, CED: 1.50 mg/kg bw
  CYP3A1 mRNA, CED-L: 0.70 mg/kg bw
females, CES 10%
  CYP2B1 mRNA, CED: 2.20 mg/kg bw
  CYP2B1 mRNA, CED-L: 1.20 mg/kg bw
  CYP3A1 mRNA, CED: 2.90 mg/kg bw
  CYP3A1 mRNA, CED-L: 1.40 mg/kg bw
males, CES 5%
  CYP2B1 mRNA, CED: 0.70 mg/kg bw
  CYP2B1 mRNA, CED-L: 0.40 mg/kg bw
  CYP3A1 mRNA, CED: 1.40 mg/kg bw
  CYP3A1 mRNA, CED-L: 0.90 mg/kg bw
males, CES 10%
  CYP2B1 mRNA, CED: 1.00 mg/kg bw
  CYP2B1 mRNA, CED-L: 0.50 mg/kg bw
  CYP3A1 mRNA, CED: 2.90 mg/kg bw
  CYP3A1 mRNA, CED-L: 1.80 mg/kg bw
